Assay results from patent US20230048338A1, “NOVEL CELLULAR DELIVERY METHODS” (PYC Therapeutics Limited, priority 2019, published 2023).

How the values were obtained:
GFAP = GFAP in vivo toxicity assay (ddPCR of Gfap mRNA after intravitreal injection); details: 5 days, mouse; for GFAP score (± SD): intravitreal 1.6 ug per eye, Gfap mRNA normalised to housekeeping genes
From the text: Glial fibrillary acidic protein (GFAP) is an intermediate-filament cytoskeletal protein. Levels of GFAP are strongly influenced by injury or stress in some cell types and GFAP expression has become an important marker of injury in the central nervous system. In the eye, Muller glia cells normally express low levels of GFAP which increases considerably following retinal injury.
Expression of GFAP mRNA was quantified via amplification of cDNA obtained as part of the in vivo Smn efficacy assay described above. ddPCR was performed using BioRad droplet generator and reader (QX200 DG8) and thermocyclers (T100), specific probes for murine Gfap (dMmuCPE5116126) and housekeeping genes Gapdh, Eef1a1 and Rp127 (dMmuCPE5195283, dMmuCPE5101732 and dMmuCPE5197083) as well as ddPCR Master mix for Probes (#1863024) and other ddPCR specific consumables from BioRad (#1863005, 12001925, 1863004, 1864007).
Assay results were obtained by BioRad ddPCR software in copies/uL. This was then normalised to housekeeping genes for comparison across experiments.

exon 7 of the SMN1 gene = assay: In vitro SMN1 efficacy assay (exon-7 skipping, ARPE-19 cells); format: cell-based, human; details: for Percent exon7-skipped SMN1 transcript (± SD): 48 h post treatment
Protocol: Potential CPP peptides were linked to a […] that targets exon 7 of the SMN1 gene (Flynn et al 2018), using strain-promoted (SPAAC) click chemistry (Agard et al 2004, Dommerholt et al. 2016). Peptide-PMO conjugates were incubated on ARPE-19 cells for 2 days in full media. Efficacy of internalization was measured by the degree of exon7 skipping in the SMN1 gene RNA transcript through RNA extraction. Peptide-PMOs with % d7 transcript higher than the PMO treatment alone were considered CPPs.
Using the SMN1 gene, we built an exon-skipping assay targeting the SMN1 gene (Flynn et al 2018) at exon-7 using a phosphorodiamidate morpholino oligonucleotide (PMO) conjugated to different CPPs. This assay was used to identify CPPs that could efficiently deliver PMO cargo to the nucleus and effect exon-skipping of SMN1. Efficiency of delivery and function was determined by measuring the change in D7-SMN1 RNA transcript, using RNA extraction, cDNA generation and PCR using SMN1-specific primers. Efficiency was interpreted by the higher the percentage D7-SMN1 transcript, the better the delivery to the nucleus by the CPP.
Exon skipping assays and PCR detection were performed according to published protocols (Mann et al 2002, Gene Med, 4, 644-654).
Retinal pigment epithelial cells (ARPE-19) immortalized cells were treated with various concentrations (4 uM, 2 uM, 1 uM, in duplicate) of CPP-PMO conjugate and SMN1 transcript levels assessed 48 h post treatment by RNA extraction and purification, followed by cDNA generation and PCR.
(§1) Cells were seeded in 24-well plates (ARPE-19, 2.5×10^4 cells/well) in complete medium (DMEM/F12 1:1, 10% FCS; 10 mM HEPES, 1× GlutaMAX™, Pen/Strep 100 u/ml; Gibco, Thermo Fisher Scientific, Waltham, Mass., USA). Cells were incubated overnight (37° C., 5% CO2) to allow for cell adherence. On the day of the assay, media was aspirated and replaced with CPP-PMO or PMO only diluted in treatment media (DMEM/F12 1:1, 10% FCS; 10 mM HEPES, 1× GlutaMAX™, Pen/Strep 100 u/ml; Gibco, Thermo Fisher Scientific, Waltham, Mass., USA), followed by incubation (37° C., 5% CO2) for 24 h. Fresh media 1:1 was added the following day and cells returned to the incubator for a further 24 h.
48 h post-treatment, the cell media was carefully aspirated, and cells rinsed with PBS. RNA from the treated cells was obtained using commercial RNA extraction kits according to manufacturer's protocol (Bio-Rad Aurum total RNA 96 kit; Quantify RNA yield; Quant-iT RNA BR kit).
(§2) Extracted RNA was purified, quantified and then diluted to 10 ng/ul. cDNA was produced using a commercial reverse transcription kit according to the manufacturers protocol (BioRad iScript). The produced cDNA was used as a template with primers designed to amplify region of interest, to amplify the DNA. The efficacy of exon skipping was determined by quantifying full length (FL SMN1) and exon-7 skipped fragment (D7-SMN1) of the SMN1 gene (LC-GX Nucleic Acid Analyzer) and calculating a percentage. The higher the percentage of D7-SMN1 DNA, the greater the CPP delivery efficiency

Smn gene exon 7 = assay: In vivo Smn efficacy assay (IVT administration), exon-7 skipping in ocular tissues; details: mouse; for Percent exon7-skipped SMN1 transcript (± SD): intravitreal 1.6 ug per eye
From the text: The in vitro SMN1 efficacy assay described in Example 1 is equally applicable to the in vivo setting, given the ubiquitous distribution of the Smn gene in the mouse body, Smn being the mouse orthologue of the human SMN1. The use of natural L-peptides is undesirable in the in vivo setting, due to presence of a vast array of proteases in the body. To adequately assess the peptide's cell-penetrating capacity, peptides were synthesized as either mixed-L/D amino acid containing peptides, where all basic residues were D-amino acids, or as full-D amino acid containing peptides. Both approaches have been established to protect peptides from proteolytic degradation during systemic administration into animals.
The ability of CPP-PMOs to deliver the Smn cargo in vivo to the RPE cell later in the eye was assessed by administration into the vitreous humor of mice and measuring the change in Smn transcript levels in the retina, RPE and choroid cell layers after 5, 7, 21 and 28 days. The CPP of the present invention (SEQ ID NO: 1) and control CPP Pip6a (SEQ ID NO: 3), conjugated to an Smn PMO (SEQ ID NO: 2), were administered by intravitreal injection at 1.6 ug (0.5 ul volume) per eye. At the desired time point post treatment, the animals were culled and eyes were dissected, tissue layers homogenised and RNA extracted using the same protocol as per Example 1.
The efficiency of delivery and function to the various organs was determined by measuring the change in Smn RNA transcript from full-length to an exon-7 skipped fragment (D7-Smn) RNA transcript, using RNA extraction, cDNA generation and PCR using Smn-specific primers. Efficiency was interpreted by the higher the percentage D7-Smn transcript, the better the delivery to the tissue by the CPP.
Exon skipping assays and RT-PCR detection were performed according to published protocols (Mann et al 2002, Gene Med, 4, 644-654).
Mice (C576/6; age 7 weeks) were sourced from Australian BioResources (ABR). Selected CPP-PMOs were injected into the vitreous at 1.6 ug (0.5 ul) per eye, with one to three mice per treatment group.
48 h post-treatment, mice were culled, and the following ocular tissues harvested; retina, RPE layer or RPE/choroid combined. The tissues were homogenised, and RNA was obtained using commercial RNA extraction kits according to manufacturer's protocol (Bio-Rad Aurum total RNA 96 kit; Quantify RNA yield; Quant-iT RNA BR kit).
as §2, with “Smn)” for “SMN1)”, “(D7-Smn)” for “(D7-SMN1)”, “Smn” for “SMN1”, “D7-Smn” for “D7-SMN1”, “efficiency.” for “efficiency”

ARPE-19 cells = assay: In vitro SMN1 viability assay (CellTiter-Glo); format: cell-based; details: for Percent Mean Viability (± SD): 48 h
Protocol: as §1, with “96-well” for “24-well”, “4×10^3” for “2.5×10^4”, “USA) at various concentrations (32, 16, 8, 4, 2, and 1 uM),” for “USA),”
48 h post-treatment, viability of the cells was measured using the commercial CellTiter-Glo® Luminescent Cell Viability Assay (Promega, Australia). In brief the CellTiter-Glo reagent lyses the cells and generates a luminescent signal that is proportional to the amount of ATP present, which in turn is directly proportional to the number of live cells present in culture. All assays were conducted with a known cytotoxic agent, melittin (Renata et al. 2007), and cell only control. Cell viability was used to determine the level of toxicity caused by the CPP-PMO conjugates, where high viability equates to low toxicity, and low viability with high toxicity, respectively.

Row | Substance | GFAP score (± SD) (GFAP) | Percent exon7-skipped SMN1 transcript (± SD) (exon 7 of the SMN1 gene; 1 uM) | Percent exon7-skipped SMN1 transcript (± SD) (exon 7 of the SMN1 gene; 2 uM) | Percent exon7-skipped SMN1 transcript (± SD) (exon 7 of the SMN1 gene; 4 uM) | Percent exon7-skipped SMN1 transcript (± SD) (Smn gene exon 7; RPE/choroid, 5 days) [%] | Percent exon7-skipped SMN1 transcript (± SD) (Smn gene exon 7; RPE/choroid, 7 days) [%] | Percent exon7-skipped SMN1 transcript (± SD) (Smn gene exon 7; retina, 5 days) [%] | Percent exon7-skipped SMN1 transcript (± SD) (Smn gene exon 7; retina, 28 days) [%] | Percent Mean Viability (± SD) (ARPE-19 cells; 2 uM) [%] | Percent Mean Viability (± SD) (ARPE-19 cells; 4 uM) [%] | Percent Mean Viability (± SD) (ARPE-19 cells; 8 uM) [%] | Percent Mean Viability (± SD) (ARPE-19 cells; 16 uM) [%] | Percent Mean Viability (± SD) (ARPE-19 cells; 32 uM) [%] | GFAP expression in vivo (in words) (GFAP; intravitreal) | Efficiency in inducing SMN1 exon-skipping relative to SMN1 PMO only treatment (exon 7 of the SMN1 gene; 2 uM) [fold] | Truncated D7-Smn transcript in vivo compared with Smn PMO alone (in words) (Smn gene exon 7; intravitreal, RPE/choroid and retina) | Cell viability relative to PMO alone (less deleterious) (ARPE-19 cells; 32 uM for 48 hours) [fold]
1 | ACTTTCCTTCTTTTTTATTTTGTCT (PMO, 5' cyclooctyne handle, chemistry not fully specified; listed as Homo sapiens) [SEQ ID NO: 2, phosphorodiamidate morpholino oligonucleotide (PMO) targeting exon 7 of SMN1, with 5' cyclooctyne handle; unconjugated cargo control] | 0.0262 | 16.59 (± 4.07) Percent | 17.35 (± 4.97) Percent | 18.34 (± 5.99) Percent | 0.00 | 0.00 | 0.00 | 0.77 | 99.41 | 100.01 | 99.11 | 97.42 | 93.61 |  |  |  | 
2 | RXRRBRRXRYQFLIRXRBRXRB[azk]ACTTTCCTTCTTTTTTATTTTGTCT [SEQ ID NO: 3[azk]2] | 0.1637 |  |  |  | 9.94 | 6.70 | 21.66 | 3.39 |  |  |  |  |  |  |  |  | 
3 | rrsrtaraGrpGrnssrpsapr[azk]ACTTTCCTTCTTTTTTATTTTGTCT (chain 1 RRSRTARAGRPGRNSSRPSAPR; chain 2 actttccttcttttttattttgtct; azidolysine SPAAC click linkage; listed as Homo sapiens) [SEQ ID NO: 1[azk]2] | 0.0324 | 19.44 (± 3.82) Percent | 21.38 (± 2.10) Percent | 29.99 (± 3.96) Percent | 13.05 | 12.22 | 19.61 | 13.71 | 102.61 | 105.23 | 103.34 | 102.52 | 98.20 | very little GFAP expression | 1.2 | creates more truncated D7-Smn transcript than the Smn PMO alone | 1.05
